Test results published in the supplement of paper PMC10949913.

Columns and labels:
Test in all cases: area under concentration-response curve (viability) (AUC (a.u.)); higher = less active
Conditions in all cases: 48 h
CU-ACC1 = test system: CU-ACC1
How it was run: (§1)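 For each of three adrenocortical carcinoma cell lines, 500–1,000 cells/well were placed in 5 µL medium in 1,536-well plates. A 23 nL volume of every library compound was added at 11 concentrations. Following 48 h, a 15-minute room-temperature CellTiter-Glo step preceded luminescence reading, with signals normalised per plate to vehicle and empty-well controls. AC50 and area under the curve were derived by curve fitting, retaining only inhibitory or non-responding curve classes.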

CU-ACC2 = test system: CU-ACC2
How it was run: as §1

NCI-H295R = test system: NCI-H295R
How it was run: as §1

SMILES | area under concentration-response curve (CU-ACC1) | area under concentration-response curve (CU-ACC2) | area under concentration-response curve (NCI-H295R)
Cc1cc(C)c(/C=C2\C(=O)Nc3ccccc32)[nH]1 | 513 | 559 | 532
Cc1nc[nH]c1CN1CCN(C(=O)N[C@@H](CC(C)C)C(=O)O)[C@@H](Cc2ccccc2)C1=O | 576 | 621 | 545
C[S+](=O)([O-])OCCCCO[S+](C)(=O)[O-] | 463 | 514 | 507
Cc1cc(-c2cnn3c(NC[C@H]4C[C@@](C)(O)C4)cc(Oc4cccnc4)nc23)ccc1C(=O)NC1CC1 | 626 | 775 | 659
C[C@H](NC(=O)CCC(F)(F)F)C(=O)N[C@@H]1C(=O)N(CCO)c2ncccc2-c2ccccc21 | 472 | 511 | 475
NC(=O)c1cccc(N)c1 | 582 | 656 | 595
Cc1cnc(NC(=O)C2=C(O)c3ccccc3S(=O)(=O)N2C)s1 | 393 | 409 | 396
CCC1=C(C)CN(C(=O)NCCc2ccc(S(=O)(=O)NC(=O)N[C@H]3CC[C@H](C)CC3)cc2)C1=O | 508 | 600 | 559
C[C@H](c1ccc(F)cc1CCCC(=O)O)N(c1cc(F)ccc1F)[S+](=O)([O-])c1ccc(Cl)cc1 | 519 | 596 | 553
COc1ccc(CNC(=O)c2cc(-c3cncc(Cl)c3)cnc2-c2ccccn2)nc1OC | 430 | 412 | 407
CC(C)C(C)/C=C/C(C)C1CCC2C3=CC=C4CC(O)CCC4(C)C3CCC21C (stereo not given) | 521 | 636 | 597
CCN1C[C@]2(OC(=O)c3ccccc3NC(C)=O)CC[C@H](OC)[C@@]34[C@@H]2C[C@@H]([C@@H]13)[C@@]1(O)C[C@H](OC)[C@H]2C[C@@H]4[C@]1(O)[C@H]2OC | 416 | 499 | 429
CC(C)(C)C(=O)Oc1ccc2c(c1)nc(NC(=O)c1cccc([N+](=O)[O-])c1)n2CCCO | 506 | 584 | 525
NC(=O)c1ncn([C@@H]2O[C@H](CO)[C@@H](O)[C@H]2O)c1N | 418 | 519 | 545
CCCC1OC2C[C@H]3[C@@H]4CCC5=CC(=O)C=C[C@]5(C)[C@H]4C(O)C[C@]3(C)[C@]2(C(=O)CO)O1 (stereo not given in full) | 562 | 661 | 607
Nc1ncnc2ccccc12 | 534 | 633 | 566
N\C1=N\C2=C(N=C[N]2COCCO)C(=O)N1 | 420 | 616 | 584
C[C@@H]1C\C2=C(CCC(=O)C2)/[C@H]3CC[C@@]4(C)[C@@H](CC[C@@]4(O)C#C)[C@H]13 | 560 | 592 | 547
CC1(N)CCN(c2cnc(-c3cccc(Cl)c3Cl)c(N)n2)CC1 | 543 | 627 | 577
COC(=O)/C=C/C(=O)OC | 525 | 608 | 550
CN[C@@H]1Cc2cccc3[nH]c(=O)n(c23)C1 | 576 | 659 | 590
CC(=O)NC(CS)C(=O)O (stereo not given) | 413 | 466 | 457
C[C@@H]1CN[C@H]2[C@@H](C)[C@@]\3(CC[C@H]\4[C@@H]5C/C=C6/C[C@@H](O)CC[C@]6(C)[C@H]5CC4=C3C)O[C@@H]2C1 | 463 | 433 | 511

SMILES | area under concentration-response curve (CU-ACC1) | area under concentration-response curve (CU-ACC2) | area under concentration-response curve (NCI-H295R)
CCCNC(=O)c1cn2ncnc(Nc3cc(C(=O)NC4CC4)ccc3C)c2c1C | 539 | 654 | 583
Cc1nn(C)c(COc2ccc(N3CCN([S+](=O)([O-])N(C)C)CC3)cc2)c1-c1cccc2c(CCCOc3cccc4ccccc34)c(C(=O)O)n(CCN3CCOCC3)c12 | 517 | 580 | 508
C/C1=C2/[N]3[Co+]456([OH])<-[N]7=C1[C@@H](CCC(N)=O)C(C)(C)/C7=C/C1=[N]->4C(=C(/C)C4=[N]->5[C@@](C)([C@H]3[C@H](CC(N)=O)[C@@]2(C)CCC(=O)NC[C@@H](C)OP(=O)([O-])O[C@H]2[C@@H](O)[C@@H](n3c[n]->6c5cc(C)c(C)cc53)O[C@@H]2CO)[C@@](C)(CC(N)=O)[C@@H]4CCC(N)=O)/[C@@](C)(CC(N)=O)[C@@H]1CCC(N)=O | 495 | 595 | 564
Cc1c(-c2ccc(-c3ccccc3F)cc2)nc2ccc(F)cc2c1C(=O)O | 595 | 620 | 521
CC(C)OC(=O)/C1=C/N(CC(C)(C)C2=C1[NH]C3=CC=CC=C23)C(=O)C4=CC=C(F)C(=C4)F | 454 | 555 | 529
COc1cc2ncn(-c3cc(OCc4ccccc4C(F)(F)F)c(C(N)=O)s3)c2cc1OC | 515 | 606 | 506
C[C@@H]1O[C@@H](O[C@@H]2\C=C/C=C\C=C/C=C\C[C@H](C)OC(=O)/C=C\[C@H]3O[C@@H]3C[C@H](O)C[C@]3(O)C[C@@H](O)[C@@H](C(=O)O)[C@H](C2)O3)[C@H](O)[C@H](N)[C@@H]1O | 395 | 572 | 573
Nc1nc(N)nc(-c2cc(Cl)ccc2Cl)n1 | 409 | 441 | 410
N#Cc1ccnc(N2C(=O)CC[C@H]2C(=O)N(c2cncc(F)c2)C(C(=O)NC2CC(F)(F)C2)c2ccccc2Cl)c1 (stereo not given in full) | 500 | 602 | 578
O=C1NNc2nc(CN3Cc4ccccc4C3)nc3cccc1c23 | 537 | 600 | 526
O=C(O)CCNC(=O)c1ccc(/N=N/c2ccc(O)c(C(=O)O)c2)cc1 | 519 | 635 | 589
CC(C)(C)Sc1c(CC(C)(C)C(=O)O)n(Cc2ccc(Cl)cc2)c2ccc(OCc3ccc4ccccc4n3)cc12 | 578 | 624 | 554
CCCN(CCC)C(=O)C(CCC(=O)O)NC(=O)c1ccccc1 (stereo not given) | 504 | 570 | 524
Cc1cc(C)cc(Oc2ccc(CNC(=O)[C@H](C)N)cc2C)c1 | 478 | 559 | 509
O=C(NCC[S+](=O)([O-])c1ccc(C(F)(F)F)cn1)c1ccc(Cl)cc1 | 520 | 580 | 544
OC1=CC2=C(C(=C1)O)C(=O)\C(=C(/O2)C3=CC(=C(O)C=C3)O)O | 499 | 607 | 545
CN1C(=O)/C=C(/NCCN(CCO)CCCC2=CC=C(C=C2)[N+]([O-])=O)N(C)C1=O | 544 | 643 | 586
COc1ccc(Nc2nccc(NCCO)n2)cc1 | 496 | 578 | 517
C[S+](=O)([O-])Nc1ccc([N+](=O)[O-])cc1Oc1ccccc1 | 544 | 639 | 583
O=C(O)CNC(=O)C1C(=O)N(C2CCCCC2)C(=O)N(C2CCCCC2)C1=O | 473 | 483 | 479
O=C(O)c1ccc(CCCc2ccc(OCCc3ccc(F)cc3)cc2)o1 | 536 | 616 | 548
C[S+](=O)([O-])c1cc(F)cc2c3c(n(Cc4ccc(Cl)cc4)c12)[C@@H](CC(=O)O)CC3 | 536 | 613 | 544
